Data as given in ChEMBL document CHEMBL1132741, “Novel antifungals based on 4-substituted imidazole: a combinatorial chemistry approach to lead discovery and optimization” (Bioorg Med Chem Lett, 2000).
≈ marks a conversion by molar mass, not a printed value.

Legend:
[1] = Antifungal activity against molds expressed as negative log (pLAD value).; assay type: functional, mould
[2] = test system: Saccharomyces cerevisiae; test: Antifungal activity against yeast expressed as negative log (pLAD value).; assay type: functional
[3] = test system: Aspergillus fumigatus; test: Minimum inhibitory concentration of compound for antifungal activity against Aspergillus fumigatus; assay type: functional
[4] = test system: Nakaseomyces glabratus; test: Minimum inhibitory concentration of compound for antifungal activity against Candida glabrata; assay type: functional
[5] = test system: Kluyveromyces marxianus; test: Minimum inhibitory concentration of compound for antifungal activity against Candida kefyr; assay type: functional
[6] = test system: Candida albicans; test: Minimum inhibitory concentration of compound for antifungal activity against Candida albicans 1; assay type: functional
[7] = test system: Candida albicans; test: Minimum inhibitory concentration of compound for antifungal activity against Candida albicans 2; assay type: functional
[8] = test system: Candida albicans; test: Minimum inhibitory concentration of compound for antifungal activity against Candida albicans 4; assay type: functional
[9] = test system: Candida parapsilosis; test: Minimum inhibitory concentration of compound for antifungal activity against Candida parapsilosis; assay type: functional; conditions: Lodderomyces parapsilosis
[10] = test system: Candida tropicalis; test: Minimum inhibitory concentration of compound for antifungal activity against Candida tropicalis; assay type: functional
[11] = test system: Pichia kudriavzevii; test: Minimum inhibitory concentration of compound for antifungal activity against Candida krusei; assay type: functional
[12] = test system: Cryptococcus neoformans; test: Minimum inhibitory concentration of compound for antifungal activity against Cryptococcus neoformans; assay type: functional
[13] = test system: Microsporum canis; test: Minimum inhibitory concentration of compound for antifungal activity against Mucosporam canis; assay type: functional
[14] = test system: Trichophyton benhamiae; test: Minimum inhibitory concentration of compound for antifungal activity against Trichophyton mentagrophytes; assay type: functional, Arthroderma benhamiae
[15] = test system: Trichophyton rubrum; test: Minimum inhibitory concentration of compound for antifungal activity against Trichophyton rubrum; assay type: functional
[16] = test system: Sporothrix schenckii; test: Minimum inhibitory concentration of compound for antifungal activity against Sporothrix schenck ii; assay type: functional
[17] = test system: Candida albicans; test: Inhibition of ergosterol synthesis as measured in Candida albicans subcellular screen; assay type: functional

Row | SMILES | pLADm [1] | pLADy [2] | MIC [3] | MIC [4] | MIC [5] | MIC [6] | MIC [7] | MIC [8] | MIC [9] | MIC [10] | MIC [11] | MIC [12] | MIC [13] | MIC [14] | MIC [15] | MIC [16] | IC50 [17]
1 | CCCCOc1ccc(S(=O)(=O)N(Cc2c[nH]cn2)CC2CCCCC2)cc1 | 3.6 | 6.1 |  |  |  |  |  |  |  |  |  |  |  |  |  |  | 
2 | CCCCOc1ccc(S(=O)(=O)N(Cc2cncn2C)C(C)C2CCCCC2)cc1 (centres undefined) | 4.8 | 6.6 | > 10 µM | 1 µM (≈ 0.434 µg/mL) | < 0.1 µM | > 10 µM | < 0.1 µM | 10 µM (≈ 4.34 µg/mL) | 0.1 µM (≈ 0.0434 µg/mL) | 0.1 µM (≈ 0.0434 µg/mL) | 1 µM (≈ 0.434 µg/mL) | 1 µM (≈ 0.434 µg/mL) | 1 µM (≈ 0.434 µg/mL) | 10 µM (≈ 4.34 µg/mL) | 1 µM (≈ 0.434 µg/mL) | > 10 µM | 
3 | CCCCOc1ccc(S(=O)(=O)N(Cc2c[nH]cn2)C(CC)C2CCCCC2)cc1 (centres undefined) | 5 | >6.8 | > 10 µM | 1 µM (≈ 0.434 µg/mL) | < 0.1 µM | > 10 µM | < 0.1 µM | < 0.1 µM | < 0.1 µM | 1 µM (≈ 0.434 µg/mL) | 1 µM (≈ 0.434 µg/mL) | 1 µM (≈ 0.434 µg/mL) | 1 µM (≈ 0.434 µg/mL) | 10 µM (≈ 4.34 µg/mL) | 1 µM (≈ 0.434 µg/mL) | > 10 µM | 
4 | CC(C)C(C(C)C)N(Cc1c[nH]cn1)S(=O)(=O)c1cc(Cl)sc1Cl | 4.5 | 6.3 |  |  |  |  |  |  |  |  |  |  |  |  |  |  | 71 nM
5 | CCC(C)n1ncn(-c2ccc(N3CCN(c4ccc(OCC5COC(Cn6cncn6)(c6ccc(Cl)cc6Cl)O5)cc4)CC3)cc2)c1=O (centres undefined) [ITRACONAZOLE] |  |  | 1 µM (≈ 0.706 µg/mL) | 1 µM (≈ 0.706 µg/mL) | < 0.1 µM | > 10 µM | < 0.1 µM | > 10 µM | < 0.1 µM | 0.1 µM (≈ 0.0706 µg/mL) | 1 µM (≈ 0.706 µg/mL) | < 0.1 µM | < 0.1 µM | 0.1 µM (≈ 0.0706 µg/mL) | < 0.1 µM | 10 µM (≈ 7.06 µg/mL) | 
6 | CC(=O)N1CCN(c2ccc(OC[C@H]3CO[C@](Cn4ccnc4)(c4ccc(Cl)cc4Cl)O3)cc2)CC1 [KETOCONAZOLE] |  |  | 10 µM (≈ 5.31 µg/mL) | 10 µM (≈ 5.31 µg/mL) | < 0.1 µM | > 10 µM | 0.1 µM (≈ 0.0531 µg/mL) | 10 µM (≈ 5.31 µg/mL) | 0.1 µM (≈ 0.0531 µg/mL) | 10 µM (≈ 5.31 µg/mL) | 1 µM (≈ 0.531 µg/mL) | 0.1 µM (≈ 0.0531 µg/mL) | 1 µM (≈ 0.531 µg/mL) | 10 µM (≈ 5.31 µg/mL) | 0.1 µM (≈ 0.0531 µg/mL) | 10 µM (≈ 5.31 µg/mL) | 
7 | CCCCOc1ccc(S(=O)(=O)N(Cc2c[nH]cn2)C(C2CCCCC2)C2CCCCC2)cc1 | 4 | 5 |  |  |  |  |  |  |  |  |  |  |  |  |  |  | 
8 | CCCCOc1ccc(S(=O)(=O)N(CCc2ccccc2F)Cc2[nH]cnc2C)cc1 | <4 | <4 |  |  |  |  |  |  |  |  |  |  |  |  |  |  | 
9 | CCCCOc1ccc(S(=O)(=O)N(CCc2ccc(F)cc2)Cc2nc[nH]n2)cc1 | 3.92 | 3.95 |  |  |  |  |  |  |  |  |  |  |  |  |  |  | 
10 | CCCCOc1ccc(S(=O)(=O)N(Cc2c[nH]cn2)[C@H](C)C2CCCCC2)cc1 | 4.6 | 6.13 |  |  |  |  |  |  |  |  |  |  |  |  |  |  | 
11 | CCCCOc1ccc(S(=O)(=O)N(Cc2c[nH]cn2)[C@@H](C)C2CCCCC2)cc1 | 5 | 5.9 |  |  |  |  |  |  |  |  |  |  |  |  |  |  | 
12 | CCCCOc1ccc(S(=O)(=O)N(Cc2c[nH]cn2)C(C(C)C)C(C)C)cc1 | 5 | 6.7 | > 10 µM | 10 µM (≈ 4.08 µg/mL) | < 0.1 µM | > 10 µM | < 0.1 µM | < 0.1 µM | 0.1 µM (≈ 0.0408 µg/mL) | 0.1 µM (≈ 0.0408 µg/mL) | 10 µM (≈ 4.08 µg/mL) | 1 µM (≈ 0.408 µg/mL) | 1 µM (≈ 0.408 µg/mL) | 10 µM (≈ 4.08 µg/mL) | 1 µM (≈ 0.408 µg/mL) | > 10 µM | 73 nM
13 | CCCCCCN(Cc1c[nH]cn1)S(=O)(=O)c1ccc(OCCCC)cc1 | 5.2 | 6.1 |  |  |  |  |  |  |  |  |  |  |  |  |  |  | 76 nM
14 | CCCCOc1ccc(S(=O)(=O)N(CCc2ccc(F)cc2)CC2=CNC(C)N2)cc1 (centres undefined) | 3.92 | 3.95 |  |  |  |  |  |  |  |  |  |  |  |  |  |  | 
15 | CCCCCc1ccc(S(=O)(=O)N(CCC(C)C)Cc2c[nH]cn2)cc1 | 5 | 6.4 |  |  |  |  |  |  |  |  |  |  |  |  |  |  | 120 nM
16 | CCCCOc1ccc(S(=O)(=O)N(CC2CCCCC2)C(c2ccccc2)c2c[nH]cn2)cc1 (centres undefined) | 4 | 5.1 |  |  |  |  |  |  |  |  |  |  |  |  |  |  | 
17 | CCCCOc1ccc(S(=O)(=O)N(CC2CCCCC2)C(C)c2c[nH]cn2)cc1 (centres undefined) | 4 | 6.3 |  |  |  |  |  |  |  |  |  |  |  |  |  |  | 
18 | CCCCOc1ccc(S(=O)(=O)N(CCCCc2ccccc2)Cc2c[nH]cn2)cc1 | 5.2 | 5.4 |  |  |  |  |  |  |  |  |  |  |  |  |  |  | 27 nM
19 | CCCCOc1ccc(S(=O)(=O)N(CCc2ccc(F)cc2)Cc2c[nH]cn2)cc1 | 4.6 | 6.2 | > 10 µM | 10 µM (≈ 4.32 µg/mL) | < 0.1 µM | > 10 µM | < 0.1 µM | 10 µM (≈ 4.32 µg/mL) | 1 µM (≈ 0.432 µg/mL) | < 0.1 µM | > 10 µM | 1 µM (≈ 0.432 µg/mL) | 10 µM (≈ 4.32 µg/mL) | > 10 µM | 1 µM (≈ 0.432 µg/mL) | > 10 µM | 26 nM
20 | CCCCOc1ccc(S(=O)(=O)N(CCc2cccs2)Cc2c[nH]cn2)cc1 | 4.4 | 6.5 |  |  |  |  |  |  |  |  |  |  |  |  |  |  | 11 nM
21 | OC(Cn1cncn1)(Cn1cncn1)c1ccc(F)cc1F [FLUCONAZOLE] |  |  | > 10 µM | > 10 µM | 1 µM (≈ 0.306 µg/mL) | > 10 µM | 1 µM (≈ 0.306 µg/mL) | 1 µM (≈ 0.306 µg/mL) | 10 µM (≈ 3.06 µg/mL) | > 10 µM | > 10 µM | 10 µM (≈ 3.06 µg/mL) | 10 µM (≈ 3.06 µg/mL) | > 10 µM | 10 µM (≈ 3.06 µg/mL) | > 10 µM | 
22 | Brc1ccc(CCN(Cc2ccc(-c3ccccc3)cc2)Cc2c[nH]cn2)cc1 | 5.8 | 4.9 |  |  |  |  |  |  |  |  |  |  |  |  |  |  | 1240 nM
